This data set in a line: Plasma kinetics of ivermectin after spot-on application at different doses in combination with fipronil to dogs. The data set is classed as in vivo, dog. The procedure:
This study was undertaken in order to assess the linearity of the percutaneous passage of ivermectin after spot-on application of different doses of ivermectin (100, 250, 500 and 1000 μg.kg^−1) in combination with fipronil (10 mg.kg^−1) to the dog. Furthermore, the possibility of control both heartworms and gastro-intestinal nematodes was evaluated.
Twelve male Beagle dogs (allocated into 4 groups of 3 animals were applied spot-on formulations combining ivermectin (0.1%, 0.25%, 0.5% and 1%) and fipronil (10%) at a dose rate of 0.1 ml.kg^−1 (i.e. 100, 250, 500 and 1000 μg.kg^−1 of ivermectin and 10 mg.kg^−1 of fipronil).
The formulations are as follows: […]
The formulations were applied at one spot onto the skin between the shoulder blades.
Blood samples were collected at intervals up to 56 days post treatment.
The determination of ivermectin was carried out by HPLC after an automated solid/liquid extraction, using fluorescence detection, with limit of quantification of 100 pg.ml^−1. The determination of fipronil and its sulfone metabolite (RM1602) was carried out by HPLC with UV detection, with a limit of quantification of 20 ng.ml^−1 for fipronil and RM1602. Both methods were validated in terms of specificity, extraction recovery, linearity, precision and accuracy.

The structures appear in SMILES notation.

The text below walks through data of US6962713B2, “Spot-on formulations for combating parasites” (Merial, priority 1919, dated 2005).

With `N#Cc1nn(-c2c(Cl)cc(C(F)(F)F)cc2Cl)c(N)c1[S+]([O-])C(F)(F)F` (centres unmarked) [fipronil, 1-[2,6-Cl2-4-CF3 phenyl]-3-CN-4-[SO—CF3]-5-NH2 pyrazole], the “plasma concentrations compared with those usually observed in dogs treated at the same dose in previous studies” value (dog, in vivo) is “significantly inferior”.
With `N#Cc1nn(-c2c(Cl)cc(C(F)(F)F)cc2Cl)c(N)c1S(=O)(=O)C(F)(F)F` [RM1602], the “plasma concentrations compared with those usually observed in dogs treated at the same dose in previous studies” value (spot-on, fipronil 10 mg.kg^−1, dogs) is recorded as “significantly inferior”.
